The results in this text go back to patent US8426345B2, “Method of drug design” (Alchemia Limited, priority 2005, dated 2013).

For the assay, the target named is T1, Human SST5 somatostatin receptor (Homo sapiens, UniProt P35346).
T1 construct: expressed in transfected cells; host or cells: HEK-293 EBNA cells (membranes)
Kind of assay: Filter plate radio-ligand binding assay for SST5 receptor ([125I]SST-14 displacement). The following applies: 3P library; for % SST5 radio-ligand binding displaced at conc 0.25: conc 0.25 μM; for % SST5 radio-ligand binding displaced at conc 1.0: conc 1.0 μM.

T1 sequence (P35346 whole entry): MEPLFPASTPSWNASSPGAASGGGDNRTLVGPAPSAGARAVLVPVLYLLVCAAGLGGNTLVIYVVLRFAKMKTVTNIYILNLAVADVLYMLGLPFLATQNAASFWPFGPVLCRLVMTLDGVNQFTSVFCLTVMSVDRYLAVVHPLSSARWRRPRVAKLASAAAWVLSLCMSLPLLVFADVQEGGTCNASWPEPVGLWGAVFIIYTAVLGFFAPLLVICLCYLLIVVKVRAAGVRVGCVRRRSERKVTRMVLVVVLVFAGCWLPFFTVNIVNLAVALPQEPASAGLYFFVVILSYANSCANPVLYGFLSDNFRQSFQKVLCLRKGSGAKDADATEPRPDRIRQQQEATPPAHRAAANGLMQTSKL

In the case of `COC[C@H]1O[C@H](OCc2ccc3ccccc3c2)[C@H](NC(=O)C2CCCNC2)[C@@H](OCc2ccc3ccccc3c2)[C@@H]1O` (some centres unmarked) [Compound 103], the “% SST5 radio-ligand binding displaced at conc 0.25” value was “+ (% SST5 radio-ligand binding displaced at cone (μM) 60>+>40%)” and the “% SST5 radio-ligand binding displaced at conc 1.0” value was “++ (% SST5 radio-ligand binding displaced at conc (μM) >60%)”.

`COCC1OC(OCc2ccc3ccccc3c2)C(NC(=O)C2CCCCC2N)C(OCc2ccc3ccccc3c2)C1O` (centres unmarked) [Compound 104]: the “% SST5 radio-ligand binding displaced at conc 0.25” value is listed as “− (% SST5 radio-ligand binding displaced at cone (μM) −<40%)” and the “% SST5 radio-ligand binding displaced at conc 1.0” value is given as “− (% SST5 radio-ligand binding displaced at cone (μM) −<40%)”.

As for `COCC1OC(OCc2ccc3ccccc3c2)C(NC(=O)C2CCCCC2N)C(OCc2ccc3ccccc3c2)C1O` (centres unmarked) [Compound 105], the “% SST5 radio-ligand binding displaced at conc 0.25” value was “− (% SST5 radio-ligand binding displaced at cone (μM) −<40%)” and the “% SST5 radio-ligand binding displaced at conc 1.0” value is on record as “− (% SST5 radio-ligand binding displaced at cone (μM) −<40%)”.

Regarding `COC[C@H]1O[C@H](OCc2ccc3ccccc3c2)[C@H](NC(=O)CCN(C)C)[C@@H](OCc2ccc3ccccc3c2)[C@@H]1O` [Compound 106], the “% SST5 radio-ligand binding displaced at conc 0.25” value is “− (% SST5 radio-ligand binding displaced at cone (μM) −<40%)” and the “% SST5 radio-ligand binding displaced at conc 1.0” value was “− (% SST5 radio-ligand binding displaced at cone (μM) −<40%)”.

Regarding `COC[C@H]1O[C@H](OCc2ccc3ccccc3c2)[C@H](NC(=O)CCN)[C@@H](OCc2cccc(Cl)c2)[C@@H]1O` [Compound 107], the “% SST5 radio-ligand binding displaced at conc 0.25” value is “++ (% SST5 radio-ligand binding displaced at conc (μM) >60%)” and the “% SST5 radio-ligand binding displaced at conc 1.0” value was “++ (% SST5 radio-ligand binding displaced at conc (μM) >60%)”.

As to `COC[C@H]1O[C@H](OCc2ccc3ccccc3c2)[C@H](NC(=O)CCN)[C@@H](OCc2cc(Cl)ccc2Cl)[C@@H]1O` [Compound 108], the “% SST5 radio-ligand binding displaced at conc 0.25” value is on record as “+ (% SST5 radio-ligand binding displaced at cone (μM) 60>+>40%)” and the “% SST5 radio-ligand binding displaced at conc 1.0” value was “++ (% SST5 radio-ligand binding displaced at conc (μM) >60%)”.

On to `COC[C@H]1O[C@H](OCc2ccc3ccccc3c2)[C@H](NC(=O)CCN)[C@@H](OCc2ccccc2Cl)[C@@H]1O` [Compound 109], for which the “% SST5 radio-ligand binding displaced at conc 0.25” value is “− (% SST5 radio-ligand binding displaced at cone (μM) −<40%)” and the “% SST5 radio-ligand binding displaced at conc 1.0” value was “++ (% SST5 radio-ligand binding displaced at conc (μM) >60%)”.

Turning to `COC[C@H]1O[C@H](OCc2ccc3ccccc3c2)[C@H](NC(=O)CCN)[C@@H](OCc2cccc3cccnc23)[C@@H]1O` [Compound 110], the “% SST5 radio-ligand binding displaced at conc 0.25” value was “++ (% SST5 radio-ligand binding displaced at conc (μM) >60%)” and the “% SST5 radio-ligand binding displaced at conc 1.0” value was “++ (% SST5 radio-ligand binding displaced at conc (μM) >60%)”.

As for `COC[C@H]1O[C@H](OCc2ccc3ccccc3c2)[C@H](NC(=O)CCN)[C@@H](OCc2nc3ccccc3s2)[C@@H]1O` [Compound 111], the “% SST5 radio-ligand binding displaced at conc 0.25” value was “− (% SST5 radio-ligand binding displaced at cone (μM) −<40%)” and the “% SST5 radio-ligand binding displaced at conc 1.0” value is reported as “− (% SST5 radio-ligand binding displaced at cone (μM) −<40%)”.

Regarding `COC[C@H]1O[C@H](OCc2ccc3ccccc3c2)[C@H](NC(=O)CCN)[C@@H](OCc2nccc3ccccc23)[C@@H]1O` [Compound 112], the “% SST5 radio-ligand binding displaced at conc 0.25” value is reported as “+ (% SST5 radio-ligand binding displaced at cone (μM) 60>+>40%)” and the “% SST5 radio-ligand binding displaced at conc 1.0” value is listed as “++ (% SST5 radio-ligand binding displaced at conc (μM) >60%)”.

On to `COC[C@H]1O[C@H](OCc2ccc3ccccc3c2)[C@H](NC(=O)CCN)[C@@H](OCc2ccc(Cl)c(Cl)c2)[C@@H]1O` [Compound 113], for which the “% SST5 radio-ligand binding displaced at conc 0.25” value was “++ (% SST5 radio-ligand binding displaced at conc (μM) >60%)” and the “% SST5 radio-ligand binding displaced at conc 1.0” value was “++ (% SST5 radio-ligand binding displaced at conc (μM) >60%)”.

Take `COC[C@H]1O[C@H](OCc2ccc3ccccc3c2)[C@H](NC(=O)CCN)[C@@H](OCc2cccc3ccccc23)[C@@H]1O` [Compound 114]: the “% SST5 radio-ligand binding displaced at conc 0.25” value is listed as “++ (% SST5 radio-ligand binding displaced at conc (μM) >60%)” and the “% SST5 radio-ligand binding displaced at conc 1.0” value is given as “++ (% SST5 radio-ligand binding displaced at conc (μM) >60%)”.

Regarding `COC[C@H]1O[C@H](OCc2ccc3ccccc3c2)[C@H](NC(=O)CCN)[C@@H](OCc2ccc(Cl)cc2Cl)[C@@H]1O` [Compound 115], the “% SST5 radio-ligand binding displaced at conc 0.25” value is on record as “+ (% SST5 radio-ligand binding displaced at cone (μM) 60>+>40%)” and the “% SST5 radio-ligand binding displaced at conc 1.0” value is “++ (% SST5 radio-ligand binding displaced at conc (μM) >60%)”.

As to `COC[C@H]1O[C@H](OCc2ccc3ccccc3c2)[C@H](NC(=O)CCN)[C@@H](OCc2ccc3ccccc3n2)[C@@H]1O` [Compound 116], the “% SST5 radio-ligand binding displaced at conc 0.25” value was “+ (% SST5 radio-ligand binding displaced at cone (μM) 60>+>40%)” and the “% SST5 radio-ligand binding displaced at conc 1.0” value is “++ (% SST5 radio-ligand binding displaced at conc (μM) >60%)”.

Consider `COC[C@H]1O[C@H](OCc2ccc3ccccc3c2)[C@H](NC(=O)CCN)[C@@H](OCc2cccc(Cl)c2Cl)[C@@H]1O` [Compound 117], for which the “% SST5 radio-ligand binding displaced at conc 0.25” value is “++ (% SST5 radio-ligand binding displaced at conc (μM) >60%)” and the “% SST5 radio-ligand binding displaced at conc 1.0” value is “++ (% SST5 radio-ligand binding displaced at conc (μM) >60%)”.

Regarding `COC[C@H]1O[C@H](OCc2ccc3ccccc3c2)[C@H](NC(=O)CCN)[C@@H](OCc2ccc(Oc3ccccc3)cc2)[C@@H]1O` [Compound 118], the “% SST5 radio-ligand binding displaced at conc 0.25” value is given as “++ (% SST5 radio-ligand binding displaced at conc (μM) >60%)” and the “% SST5 radio-ligand binding displaced at conc 1.0” value is on record as “++ (% SST5 radio-ligand binding displaced at conc (μM) >60%)”.

Consider `COC[C@H]1O[C@H](OCc2ccc3ccccc3c2)[C@H](NC(=O)CCCN)[C@@H](OC)[C@@H]1O` [Compound 119], for which, under “conc 50 μM”, the “% SST5 radio-ligand binding displaced at conc 50” value was “− (% SST5 radio-ligand binding displaced at cone (μM) −<40%)”. In addition, the “% SST5 radio-ligand binding displaced at conc 250” value (conc 250 μM) was “+ (% SST5 radio-ligand binding displaced at cone (μM) 60>+>40%)”. In addition, the “% SST5 radio-ligand binding displaced at conc 500” value (conc 500 μM) is “++ (% SST5 radio-ligand binding displaced at conc (μM) >60%)”.

As for `COC[C@H]1O[C@H](OCc2ccc3ccccc3c2)[C@H](NC(=O)CCCN)[C@@H](OCc2ccc(Cl)cc2)[C@@H]1O` [Compound 134], the “% SST5 radio-ligand binding displaced at conc 1.0” value is “++ (% SST5 radio-ligand binding displaced at conc (μM) >60%)”. Under “conc 0.001 μM”, the “% SST5 radio-ligand binding displaced at conc 0.001” value was “+ (% SST5 radio-ligand binding displaced at cone (μM) 60>+>40%)”. For the same compound, where the note is “conc 0.10 μM”, the “% SST5 radio-ligand binding displaced at conc 0.10” value is “++ (% SST5 radio-ligand binding displaced at conc (μM) >60%)”. Moreover, the “% SST5 radio-ligand binding displaced at conc 0.5” value (conc 0.5 μM) was “++ (% SST5 radio-ligand binding displaced at conc (μM) >60%)”. In addition, the “% SST5 radio-ligand binding displaced at conc 10” value (conc 10 μM) is given as “++ (% SST5 radio-ligand binding displaced at conc (μM) >60%)”.

For `NCCCC(=O)N[C@H]1[C@@H](OCc2ccc3ccccc3c2)O[C@H](COCc2ccc3ccccc3c2)[C@@H](O)[C@@H]1OCc1ccc(Cl)cc1` [Compound 135], the “% SST5 radio-ligand binding displaced at conc 0.25” value is recorded as “− (% SST5 radio-ligand binding displaced at cone (μM) −<40%)” and the “% SST5 radio-ligand binding displaced at conc 1.0” value was “++ (% SST5 radio-ligand binding displaced at conc (μM) >60%)”.

Turning to `NCCCC(=O)N[C@H]1[C@@H](OCc2ccc3ccccc3c2)O[C@H](COCc2ccccc2)[C@@H](O)[C@@H]1OCc1ccc(Cl)cc1` [Compound 136], the “% SST5 radio-ligand binding displaced at conc 0.25” value is “− (% SST5 radio-ligand binding displaced at cone (μM) −<40%)” and the “% SST5 radio-ligand binding displaced at conc 1.0” value was “++ (% SST5 radio-ligand binding displaced at conc (μM) >60%)”.

For the compound `NCCCC(=O)N[C@H]1[C@@H](OCc2ccc3ccccc3c2)O[C@H](COCc2ccc(Cl)cc2)[C@@H](O)[C@@H]1OCc1ccc(Cl)cc1` [Compound 137], the “% SST5 radio-ligand binding displaced at conc 0.25” value is listed as “− (% SST5 radio-ligand binding displaced at cone (μM) −<40%)” and the “% SST5 radio-ligand binding displaced at conc 1.0” value was “++ (% SST5 radio-ligand binding displaced at conc (μM) >60%)”.

As for `COC[C@H]1O[C@H](OCc2ccc3ccccc3c2)[C@H](NC(=O)C(N)CCN)[C@@H](OCc2ccc3ccccc3c2)[C@@H]1O` (some centres unmarked) [Compound 138], the “% SST5 radio-ligand binding displaced at conc 0.25” value was “− (% SST5 radio-ligand binding displaced at cone (μM) −<40%)” and the “% SST5 radio-ligand binding displaced at conc 1.0” value was “− (% SST5 radio-ligand binding displaced at cone (μM) −<40%)”.

For `CNCCCC(=O)N[C@H]1[C@@H](OCc2ccc3ccccc3c2)O[C@H](COC)[C@@H](O)[C@@H]1OCc1ccc2ccccc2c1` [Compound 139], the “% SST5 radio-ligand binding displaced at conc 0.25” value is recorded as “− (% SST5 radio-ligand binding displaced at cone (μM) −<40%)” and the “% SST5 radio-ligand binding displaced at conc 1.0” value is “+ (% SST5 radio-ligand binding displaced at cone (μM) 60>+>40%)”.

With `COC[C@H]1O[C@H](OCc2ccc3ccccc3c2)[C@H](NC(=O)CCC(C)N)[C@@H](OCc2ccc3ccccc3c2)[C@@H]1O` (some centres unmarked) [Compound 140], the “% SST5 radio-ligand binding displaced at conc 0.25” value is recorded as “++ (% SST5 radio-ligand binding displaced at conc (μM) >60%)” and the “% SST5 radio-ligand binding displaced at conc 1.0” value is “++ (% SST5 radio-ligand binding displaced at conc (μM) >60%)”.

As to `COC[C@H]1O[C@H](OCc2ccc3ccccc3c2)[C@H](NC(=O)CCCN(C)C)[C@@H](OCc2ccc3ccccc3c2)[C@@H]1O` [Compound 141], the “% SST5 radio-ligand binding displaced at conc 0.25” value was “− (% SST5 radio-ligand binding displaced at cone (μM) −<40%)” and the “% SST5 radio-ligand binding displaced at conc 1.0” value was “− (% SST5 radio-ligand binding displaced at cone (μM) −<40%)”.

Regarding `COC[C@H]1O[C@H](OCc2ccc3ccccc3c2)[C@H](NC(=O)CCCN2CCCC2)[C@@H](OCc2ccc3ccccc3c2)[C@@H]1O` [Compound 143], the “% SST5 radio-ligand binding displaced at conc 0.25” value is listed as “− (% SST5 radio-ligand binding displaced at cone (μM) −<40%)” and the “% SST5 radio-ligand binding displaced at conc 1.0” value is reported as “− (% SST5 radio-ligand binding displaced at cone (μM) −<40%)”.
